“Also recorded” adds a separate entry of the source.

The values that follow come from patent US10239839B2, “Compounds and formulations suitable for radical scavenging” (Solenne BV, priority 2006, dated 2019).

A short description of data set [1]: UV-Vis absorbance / optical density. The data set is classed as physicochemical. On the procedure: All of these oils show an absorbance (A) at λ=570 nm of A570 less than 0.05 when measuring the neat oil against water, using 1 cm cuvettes as is general practice. The above absorbance profiles were measured by placing the neat oil in the 1 cm path length spectrometer cuvette. […] Olive oil typically has a darker appearance (and is thus more optically dense) than the other oils, and this can be seen in the absorption profile.
In many instances, the concentration of fullerene, fullerene derivative, or fullerene-derived ketolactam desired due to considerations of optimal antioxidant efficacy is higher than can be conveniently measured by standard UV/vis spectroscopy. For concentrated solutions, dilution may be necessary to obtain a proper spectrum in the so-called visible area (λ=400-700 nm). If such concentrated solutions are measured without dilution, A570 may exceed a limit to obtain an accurate measurement, or may even exceed the maximum value that can be measured by the spectrometer. As an example, the spectrum of a concentrated solution of HG2-V2 in grapeseed oil (9.2 mg HG2-V2 dissolved in 3 mL), diluted×10 (v/v) with toluene, is shown in FIG. 8. Here, A570 is 0.24, meaning that without dilution it would give approximately A=2.4. Common UV-Vis spectrometers can usually measure up to A≈5, meaning that for this solution a large part of the spectrum (λ<510 nm) could not have been accurately measured without dilution.
400 mg HG2-V2 was added to 100 g of commercially available liquid grape seed oil and stirred with mechanical stirring for 4 hours at 25 deg. C. The HG2-V2 dissolved to give a clear, dark, amber colored solution of 0.4% (wt.) active in a simple solution. The optical density measured for this solution was over 2 AU/cm, and after 10/1 dilution with toluene was over 0.2.

The conditions of data set [2]: natural sunlight, chlorobenzene.
Method: [f] Two beakers were irradiated simultaneously by natural sunlight. Beaker 2 contained a solution of 300.5 mg of adad and 17.9 mg of PCBM in 100 mL of chlorobenzene. This solution was placed in a 250 mL beaker, wrapped with paper and Al-foil to prevent light going through the side of the beaker. […] The resulting solution was put in a brown-glass bottle for transport. The solvent was removed in vacuo and the resulting solid material was analyzed by ^1H NMR spectroscopy as described above.
This solution was placed in a 250 mL beaker, wrapped with paper and Al-foil to prevent light going through the side of the beaker. […] The resulting solution was placed in a brown-glass bottle for transport. Approximately 10 mL of the reaction mixture was filtered and put aside. The remaining amount was concentrated in vacuo and the resulting solid material was analyzed by ^1H NMR spectroscopy as described above.
This solution gave an absorbance of A=0.14 at 646 nm (against neat chlorobenzene).
Data set [3] can be described thus: Photo-oxidation of adamantylideneadamantane (ad=ad) to monitor ^1O2 formation, sodium lamp. The settings on record: bubbling air. The text has this:
Excited fullerene, triplet+O2→fullerene+singlet oxygen (^1O2) The ^1O2 thus generated can react with a fullerene, giving an oxidized fullerene, or with other molecules that can react with ^1O2. One such molecule is adamantylideneadamantane (ad=ad), which is known to react with ^1O2, giving a stable 1,2-dioxetane, adamantylideneadamantane peroxide, as the product (J. H. Wieringa et al., Tetrahedron Letters 1972, 2, 169). This reaction is depicted in FIG. 11. This oxidation of ad=ad can be used to monitor the formation of ^1O2 by fullerenes or fullerene derivatives.
In a first set of experiments, Phenyl-C61-Butyric-Acid-Methyl-Ester (PCBM,) and HG2-V1 were compared. […] After reaction overnight, the solvent was removed in vacuo and the residual material analyzed by ^1H NMR. […]
In a second set of experiments, the above reaction was done at a high concentration (20 mg/mL) of ad=ad, this time using CCl4 as the solvent. […] Thus, samples from the reaction can be directly analyzed by ^1H NMR, when diluted with, e.g., CDCl3. […]
Samples of 150-200 μL were taken from the reaction and diluted with ˜400 μL of CDCl3. […] Thus, the formation of adamantylideneadamantane peroxide was monitored over time, by following the appearance of the signal at 2.65 ppm. […]

The conditions of data set [4]: Tagmatarchis et al.; Hauke et al.; cited from earlier work.
The nature of data set [5]: Percutaneous absorption study. It is filed as in vitro ADME. The settings on record: 0.3% (wt.) in grape seed oil. On the procedure:
[d] A percutaneous absorption study was conducted with 6 fresh viable skin samples from one donor, where 20 times recommended usage level (recommended usage level is 6-8 drops on the face) of a 0.3% (wt.) formulation of HG2-V2 in grape seed oil was used. Analysis by extraction of receptor fluid with toluene and analysis with HPLC-MS (using Buckyprep analytical column) was performed.

A short description of data set [6]: Photo-oxidation of adamantylideneadamantane, UV light source. The settings on record: compared with α-tocopherol. On the procedure:
[e] Two beakers were irradiated simultaneously with a UV light source (Philips HB172, fitted with 4 Philips Cleo 15 W luminescent tubes; UV-type 3). Beaker 1 contained a mixture of 301.0 mg of adamantylideneadamantane and 24.9 mg of α-tocopherol (Aldrich, >97%) in 100 mL of chlorobenzene. This solution was placed in a 250 mL beaker, which was wrapped with paper and Al-foil to prevent light going through the side of the beaker. The solution was stirred magnetically and irradiated 7 hours with a UV lamp (Philips HB172, fitted with 4 Philips Cleo 15 W luminescent tubes; UV-type 3), which was mounted horizontally directly above the beakers. The reaction mixture was concentrated in vacuo and the resulting solid material was analyzed by ^1H NMR spectroscopy as described above. […] The ratio of the integrals of unreacted adamantylideneadamantane (at 2.9 ppm) to adamantylideneadamantane peroxide was 90:10.
Beaker 2 contained a mixture of 301.2 mg of adamantylideneadamantane and 25.0 mg of HG2-V2 in 100 mL of chlorobenzene. This solution was placed in a 250 mL beaker, which was wrapped with paper and Al-foil to prevent light going through the side of the beaker. […] The reaction mixture was concentrated in vacuo and the resulting solid material was analyzed by ^1H NMR spectroscopy as described above. […]

Data set [7] in a line: Stability of solutions exposed to light and air. It is filed as physicochemical. The following applies: dissolved in grape seed oil, darker than parent oil, up to a year. From the text:
For example, it is known in the art that a dilute solution of C60 in toluene exposed to light and air will undergo approximately 10% or more degradation and loss of the C60 due to epoxidation and subsequent breakdown of the fullerene cage resulting from singlet oxygen generated via photoexcitation of the C60. This can be seen even visually since the decomposed C60 forms a blackish product which settles out of solution.

The subject of data set [8] is erythema. As to the kind of experiment: Erythemal response to 3×MED full spectrum UV light after occluded patches. The data set is classed as in vivo, human. The settings on record: 0.3% wt. in grape seed oil, 3×MED 24 hours after treatment, 25 subjects. On the procedure:
[c] 25 human subjects, for which the minimal erythemal dose (MED) of full spectrum UV light (Solar Light Company's 601-300 Multiport Simulator, emitting light of a Xenon-Shortarc Lamp) had been determined, were treated with 6 occluded patches (on the back) with a formulation of HG2-V2 (0.3% wt.) in grape seed oil. 24 hours after patch treatment, the regions of application were exposed to 3×MED of the same light source. […] This provides evidence that the formulation provided an anti-erythemic effect, since erythema scores for 3×MED should range between 1-3.

Take `CN(C)c1ccc2nc3ccc(=[N+](C)C)cc-3sc2c1` [MB, methylene blue]: the “average optical absorption between 400 nm and 700 nm compared to PCBM” value in data set [1] is “about 10 times”. Besides, in data set [2], the “amount of ^1O2 compared to PCBM on an equal absorption and equimolar basis” value was found to be 25 times; the “net generation of ^1O2 compared to PCBM on an equimolar basis” value is listed as 250 times.

In the case of “Phenyl-C61-Butyric-Acid-Methyl-Ester [PCBM]”, in data set [3] (CCl4, ad=ad 20 mg/mL, 150 W sodium lamp, equal molarity), the “production of adamantylideneadamantane peroxide over time (ratio of peak at 2.65 ppm and signal at 2.88 ppm of ad=ad)” value is given as “much faster”. Also, the “amount of adamantylideneadamantane peroxide formed (^1H NMR signal at 2.65 ppm)” value in data set [3] (chlorobenzene, ad=ad 1.5 mg/mL, 400 W sodium lamp, 16.5-17 h) is listed as “much larger than that formed when using HG2-V1; also recorded: substantial amount”.

For C59NH, in data set [4], the “^1O2 quantum yields (in words)” value is “reduced ^1O2 quantum yields”.

Take (C59N)2: in data set [4], the “^1O2 quantum yields (in words)” value was “reduced ^1O2 quantum yields”.

For “2a-Aza-1,2(2a)-homo-1,9-seco[5,6]fullerene-C60—Ih-1,9-dione,2a-[[4-docosyloxy)-3-methoxyphenyl]methyl] [HG2-V2]”, the percutaneous absorption result in data set [5] (20 times recommended usage level, receptor fluid 8 hr and 24 hr) is “less than 0.004%”. The “content in receptor fluid (HPLC-MS)” value in data set [5] (8 hr and 24 hr collection points) was “no HG2-V2 at or above analytical detection limit”. Moreover, in data set [1] (9.2 mg in 3 mL grapeseed oil, diluted ×10 (v/v) with toluene), the A570 is 0.24. Moreover, the A570 without dilution in data set [1] (9.2 mg in 3 mL grapeseed oil, extrapolated) is reported as around 2.4. In addition, in data set [1] (0.4% (wt.) in grape seed oil), the optical density result is listed as “over 2 AU/cm” and the “optical density after 10/1 dilution with toluene” value is listed as “over 0.2”. In data set [6], the “net generation of ^1O2 under UV irradiation, equal weight percentage” value is listed as “less for HG2-V2 than α-tocopherol”. Also, the “decomposition on exposure to light and air” value in data set [7] was “reduced amount of decomposition products”. The “average erythemic response on the erythema response scale (1 = first sign of erythema)” value in data set [8] came to 0.77.
